# Assay results: US12060588B2, “Methods of editing DNA methylation” (Whitehead Institute for Biomedical Research, priority 2016, dated 2024)
# Tests used:
# [1] = tested on: Snrpn promoter (IG-DMR GFP/Pat reporter), skin dermal cells; experiment: In vivo activation of the IG-DMR GFP/Pat reporter in mouse skin (lentiviral delivery)
# Excerpt: FIGS. 7A-7H depict targeted ex vivo and in vivo DNA methylation editing by dCas9-Tet1 to activate a silenced GFP reporter. FIG. 7A provides a schematic diagram illustrating the experimental procedure for the ex vivo activation of a silenced GFP reporter in mouse fibroblast cells. Mouse tail fibroblast cells were derived from a genetically modified mouse line carrying a paternal IG-DMR-Snrpn-GFP allele (IG-DMRGFP/Pat) in the Dlk1-Dio3 locus. The IG-DMR-Snrpn promoter on the paternal allele is hypermethylated so that the GFP reporter is constitutively silenced. The cultured fibroblast cells were infected with lentiviral vectors expressing dCas9-Tet1 and gRNAs to demethylate the Snrpn promoter and activate the GFP reporter. Cells are subject to imaging and FACS analysis. […] Stained in red for Cherry, green for GFP and DAPI for nuclei. Scale bar: 100 um. […] Brains were sliced and analyzed by immunohistochemical approaches. […] FIGS. 7G-7H provide quantification of the percentage of IG-DMR^GFP/Pat cells with GFP activation in Cherry (gRNAs) positive cells in the in vivo lentiviral delivery experiment in the brain (FIG. 7G) and in the skin epidemis (FIG. 7H). […]
# FIGS. 14A-14F depict activation of IG-DMR^GFP/Pat reporter in mouse skin cells by dCas9-Tet1 mediated demethylation. […] Note red auto-fluorescence on the left edges of the epidermis. […]
# [2] = tested on: Snrpn promoter (IG-DMR GFP/Pat reporter), neurons; experiment: In vivo activation of the IG-DMR GFP/Pat reporter in mouse brain (stereotaxic lentiviral delivery)
# Excerpt: FIGS. 7A-7H depict targeted ex vivo and in vivo DNA methylation editing by dCas9-Tet1 to activate a silenced GFP reporter. FIG. 7A provides a schematic diagram illustrating the experimental procedure for the ex vivo activation of a silenced GFP reporter in mouse fibroblast cells. Mouse tail fibroblast cells were derived from a genetically modified mouse line carrying a paternal IG-DMR-Snrpn-GFP allele (IG-DMRGFP/Pat) in the Dlk1-Dio3 locus. The IG-DMR-Snrpn promoter on the paternal allele is hypermethylated so that the GFP reporter is constitutively silenced. […] Brains were sliced and analyzed by immunohistochemical approaches. […] FIGS. 7G-7H provide quantification of the percentage of IG-DMR^GFP/Pat cells with GFP activation in Cherry (gRNAs) positive cells in the in vivo lentiviral delivery experiment in the brain (FIG. 7G) and in the skin epidemis (FIG. 7H). […]
# To investigate whether the DNA methylation status can be modified in vivo, we infected 3 epidermal sites on the ventral side of an IG-DMR^GFP/Pat transgenic mouse with the dCas9-Tet1 and Snrpn gRNAs (FIG. 14D). […] In addition we infected the brain of an IG-DMR^GFP/Pat transgenic mouse with lentiviral vectors using a stereotaxic setup and analyzed the effect on targeted DNA methylation in brain slices by confocal microscopy. […]
Substance,"GFP reporter activation in infected (Cherry positive) skin dermal cells in vivo ([1]; with Snrpn gRNAs, lentiviral injection into dermal sites, 3 days)","GFP reporter activation efficiency in Cherry positive cells (neurons) of the brain in vivo ([2]; with Snrpn gRNAs, stereotaxic lentiviral injection, 3 days)",GFP reporter activation in infected skin dermal cells in vivo ([1]; with a scrambled gRNA),GFP reporter activation in Cherry positive cells of the brain in vivo ([2]; with a scrambled gRNA)
"dC-dT: dCas9 fused to an inactive mutant form of Tet1 (H1672Y, D1674A), SEQ ID NO: 160",did not activate GFP reporter expression,did not activate GFP reporter expression,–,–
"dCas9-Tet1: catalytically inactive Cas9 (dCas9) fused through NLS to the Tet1 catalytic domain, SEQ ID NO: 159; lentivirally expressed with gRNAs",–,–,did not activate GFP reporter expression,did not activate GFP reporter expression
